Here are results for three molecules from paper PMC4527839, “Synergistic Activity of the Plant Defensin HsAFP1 and Caspofungin against Candida albicans Biofilms and Planktonic Cultures” (PLoS ONE, 2015).

Counter-ions that a name gives are not always drawn. Like-named read-outs stand apart in the source and are kept apart here.

The test system of test [1] is C. albicans SC5314 biofilms. The experiment in a line: Checkerboard assay, biofilm formation inhibition. The test is classed as cell-based. The following applies: Candida albicans, CTB assay, mean ± SEM. How it is done: The Biofilm Inhibitory Concentration 50 value (BIC50; the minimum concentration required to reduce biofilm formation by 50% as compared to control treatment) of rHsAFP1 was determined using the following antibiofilm assay: a C. albicans SC5314 overnight culture, grown in YPD, was diluted to an optical density (600 nm) of 0.1 in RPMI 1640 medium and 100 μL of this suspension was added to the wells of a round-bottomed microtitre plate (TPP, Tradingen, Switzerland). After 1 h of adhesion at 37°C, the medium was aspirated and the biofilms were washed with 100 μL phosphate-buffered saline (PBS) to remove non-adherent cells. Fresh RPMI 1640 medium, followed by an rHsAFP1 concentration series was added to the biofilms. The DMSO concentration was similar to that in the checkerboard assays, i.e. 0.5%. Biofilms were allowed to grow for 24 h at 37°C and were subsequently washed with PBS and quantified with CellTiter-Blue (CTB; Promega, WI, USA)) by adding 100 μL of CTB diluted 1/10 in PBS to each well. After 1 h of incubation in the dark at 37°C, the fluorescence was measured with a fluorescence spectrometer (λEx/λEm: 535/590 nm). The fluorescence values of the samples were corrected by subtracting the average fluorescence value of the CTB of uninoculated wells (blank). The percentage of surviving biofilm cells was calculated relative to the control treatment (0.5% DMSO).
C. albicans biofilms or C. albicans planktonic cultures were grown as described above. A combination of rHsAFP1 and antimycotic (caspofungin or amphotericin B), two-fold diluted across the columns and rows of a 96-well plate, respectively, was added to the planktonic culture or to the biofilms. […] Synergy was determined by calculating the Fractional Inhibitory Concentration Index (FICI), in which the actual concentration of compound A (i.e. rHsAFP1) in the checkerboard experiment was used, as indicated in Tables 1–3 and 4.
(§1) Data were analysed with GraphPad Prism (GraphPad Software, Inc., CA, USA). […]

The subject of test [2] is C. albicans SC5314 biofilms (24 hours-old). Kind of test: Checkerboard assay, biofilm eradication. The following applies: Candida albicans, antimycotic alone, [rHsAFP1] 0 μM, CTB assay, mean ± SEM, n ≥ 3, read-out: BEC50 CAS or AMB. In kind it is cell-based. On the procedure: The Biofilm Eradicating Concentration 50 value (BEC50; the minimum concentration required to reduce the viability of the cells in a pre-grown biofilm by 50% as compared to control treatment) of rHsAFP1 was determined using the BEC50 determination assay as described by De Cremer and co-workers. Briefly, a C. albicans SC5314 overnight culture, grown in YPD, was diluted to an optical density (600 nm) of 0.1 in RPMI 1640 medium and 100 μL of this suspension was added to the wells of a round-bottomed microtitre plate (TPP, Tradingen, Switzerland). After 1 h of adhesion, the biofilms were washed with 100 μL PBS to remove non-adherent cells, followed by addition of 100 μL RPMI 1640 medium. The biofilms were allowed to grow for 24 h at 37°C. Next, an rHsAFP1 concentration series in RPMI was added to the biofilms. […] The biofilms were incubated for another 24 h at 37°C, after which they were washed and quantified with CTB as described above.
(§2) C. albicans biofilms or C. albicans planktonic cultures were grown as described above. […] Synergy was determined by calculating the Fractional Inhibitory Concentration Index (FICI), in which the actual concentration of compound A (i.e. rHsAFP1) in the checkerboard experiment was used, as indicated in Tables 1–3 and 4.
as §1

Test [3] relates to C. albicans SC5314 planktonic cultures. The experiment in a line: Checkerboard assay, planktonic cultures. In kind it is cell-based. The following applies: Candida albicans, antimycotic alone, [rHsAFP1] 0 μM, OD at 490 nm, mean ± SEM, n ≥ 3, read-out: MIC50 CAS or AMB.
Text: To test whether rHsAFP1 is as potent as HsAFP1 purified from the seeds of coral bells, we analysed the antifungal activity of both peptides against F. culmorum, following the standard CLSI protocol M28-A2 [50], with minor modifications as previously described by Osborn and colleagues: an inoculum of approximately 10^4 spores/mL of F. culmorum was suspended in half strength PDB and added to a two-fold dilution series of rHsAFP1 in water. Seed-derived HsAFP1 was purified according to the protocol as previously described by Osborn and colleagues. […] The antifungal activity of rHsAFP1 against C. albicans was subsequently analysed according to the standard CLSI protocol M27-A3 [51] with minor modifications: an inoculum of approximately 10^6 cells/mL was suspended in RPMI-1640 medium and added to a two-fold dilution series of rHsAFP1 in water. The DMSO concentration was similar to that in the biofilm assays, i.e. 0.5% DMSO.
as §2, §1

In test [4] the test system is C. albicans and C. glabrata biofilms. The arrangement: method as in PMID 24284780. The following applies: combination with caspofungin; cited from earlier work.
[5] abbreviates: antimycotic alone, [rHsAFP1] 0 μM, n ≥ 3, read-out: BIC50 CAS or AMB.

As usually defined, the MIC50 is an inhibitory concentration at the 50% level, which refers to growth in some studies and to a panel of isolates in others. For `CC[C@H](C)C[C@H](C)CCCCCCCCC(=O)N[C@H]1C[C@@H](O)[C@@H](NCCN)NC(=O)[C@@H]2[C@@H](O)CCN2C(=O)[C@H]([C@H](O)CCN)NC(=O)[C@H]([C@H](O)[C@@H](O)c2ccc(O)cc2)NC(=O)[C@@H]2C[C@@H](O)CN2C(=O)[C@H]([C@@H](C)O)NC1=O` [CAS alone, caspofungin], the IC50 is 0.9 ± 0.05 µM in test [1] (CAS alone, [HsLin06] 0 μM, n ≥ 3, read-out: BIC50 CAS); 0.72 ± 0.05 µM in test [1] (setting [5]); 0.4 ± 0.08 µM in test [2]. Further, in test [3], the MIC50 came out at 0.02 ± 0.01 µM.
For the molecule `CN(C)CCOc1ccc(/C(=C(/CCCl)c2ccccc2)c2ccccc2)cc1` [toremifene citrate], the “fold reduction of the caspofungin BIC50” value in test [4] is “up to 20 fold”.
With `C[C@@H]1[C@H](O)[C@@H](C)/C=C/C=C/C=C/C=C/C=C/C=C/C=C/[C@H](O[C@@H]2O[C@H](C)[C@@H](O)[C@H](N)[C@@H]2O)C[C@@H]2O[C@](O)(C[C@@H](O)C[C@@H](O)[C@H](O)CC[C@@H](O)C[C@@H](O)CC(=O)O[C@H]1C)C[C@H](O)[C@H]2C(=O)O` [AMB alone, amphotericin B], the IC50 in test [1] (setting [5]) stood at 1.23 ± 0.15 µM; in test [2], 1.67 ± 0.3 µM. Further, in test [3], the MIC50 stood at 0.44 ± 0.06 µM.
